Measurements from patent US20240409528A1, “BINDERS OF CEREBLON AND METHODS OF USE THEREOF” (DANA-FARBER CANCER INSTITUTE, INC., priority 2021, published 2024).
pIC50: −log10 of the molar value. Converted amounts (≈) assume the structure as drawn. Read-outs that look alike come from different tables or passages of the source. Values belong to the molecule of their own block, whether it stands above or below them.

Legend:
[1] = molecular target: T1, NanoLuc-CRBN (Homo sapiens, UniProt Q96SW2); assay: Cellular CRBN NanoBret Engagement Assay; format: cell-based
T1 construct: expressed in transfected cells; host or cells: HEK293T, lentiviral transduction, puromycin selection
Protocol: HEK293T cells were transduced with lentivirus and put under puromycin selection (5 μg/mL) for two weeks to produce a cell line stably expressing CRBN with N-terminally fused NanoLuc® luciferase (NanoLuc-CRBN). After antibiotic selection, cells were cultured in DMEM (Gibco, Life Technologies) supplemented with 10% FBS and 1 μg/mL puromycin to maintain stable NanoLuc®-CRBN expression. […] After 3-4 min, the trypsin was quenched with 5× volume DMEM media (Gibco, Life Technologies) with 10% FBS and cells were collected by centrifugation (1000 rpm, 5 min). The supernatant was removed by vacuum aspiration and the pellet was then resuspended in Opti-MEM™ without phenol red. The density of this cell suspension was determined by diluting the cells 1:1 with trypan blue, then counting using a Countess II (Thermo Fischer Scientific) and then diluted to the required volume at 2×10^5 viable cells/mL in Opti-MEM™ I (Gibco, Life Technologies). […] After plating, the assay plate was centrifuged (500×g, 5 min) and covered in aluminum foil. Compounds for testing were added to the plate using a D300e Digital Dispenser (HP) in duplicate 12-pt titrations from a 10 mM stock in DMSO, with DMSO normalized to 1% total volume. The plate was then placed in an incubator at 37° C., 5% CO2 for two hours. […] This was then added to each well (25 μL/well). The plate was read on a Pherastar FSX microplate reader with simultaneous dual emission capabilities to read 384-well plates at 450 and 520 nm. The NanoBRET™ ratio was calculated by dividing the signal at 520 nm by the signal at 450 nm for each sample. […] The NanoLuc® substrate and extracellular inhibitor were purchased as a kit from Promega Corporation and used as is from the box—Promega NanoBRET™ Nano-Glo® Substrate/Inhibitor; Promega Catalog number N2161 for 10,000 assay kit.

[2] = molecular target: T2, hsCRBN-DDB1 complex (Homo sapiens, UniProt Q96SW2); assay: Peptide mapping CE-MS/MS, site of covalent modification; format: binding; conditions: trypsin digest
Text: Peptides were resolved at 500 V/cm using an HR chip with a background electrolyte consisting of 50% acetonitrile with 1% formic acid. The mass spectrometer was operated in data dependent mode and the five most abundant ions in each MS scan (m/z 300-2000, 60K resolution, 3E6 target, 100 ms max fill time) were subjected to MS/MS (15K resolution, 1E5 target, 100 ms max fill time). […] Search parameters specified fixed vinylpyridine modification of cysteine, variable methionine oxidation, and variable modification of cysteine. Modified spectra were examined and figures prepared using mzStudio software.

[3] = molecular target: T3, RNF166 (Homo sapiens, UniProt Q96A37); assay: Mass spectrometry proteomics, relative protein abundance in MOLT4 cells (RNF166); format: cell-based; conditions: 1 μM compound, 5 hours
T3 construct: endogenous in cells; host or cells: MOLT4
T3 sequence (Q96A37 1-237): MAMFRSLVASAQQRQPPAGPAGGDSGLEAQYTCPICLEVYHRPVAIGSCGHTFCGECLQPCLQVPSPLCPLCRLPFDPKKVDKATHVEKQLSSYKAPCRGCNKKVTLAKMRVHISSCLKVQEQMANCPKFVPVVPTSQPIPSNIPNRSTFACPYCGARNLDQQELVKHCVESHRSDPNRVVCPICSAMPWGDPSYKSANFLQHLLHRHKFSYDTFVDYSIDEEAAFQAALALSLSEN

[4] = molecular target: T4, GSPT1 (Homo sapiens, UniProt P15170); assay: Mass spectrometry proteomics, relative protein abundance in MOLT4 cells (GSPT1); format: cell-based; conditions: 1 μM compound, 5 hours
T4 construct: endogenous in cells; host or cells: MOLT4

[5] = molecular target: T5, PFKFB4 (Homo sapiens, UniProt Q16877); assay: Mass spectrometry proteomics, relative protein abundance in MOLT4 cells (PFKFB4); format: cell-based; conditions: 1 μM compound, 5 hours
T5 construct: endogenous in cells; host or cells: MOLT4

[6] = molecular target: T2, hsCRBN-DDB1 complex; assay: Intact LC-MS of CRBN-DDB1 complex (covalent labeling); format: binding; conditions: for adduct formation with CRBN (intact MS): equimolar compound, room temperature
Protocol: After injecting 5 μg, proteins were desalted for four min on column with 100% A and then eluted with an HPLC gradient (0-100% B in 1 min; A=0.2 M acetic acid in water; B=0.2 M acetic acid in acetonitrile). The mass spectrometer was programmed to acquire full scan mass spectra (m/z 300-2000) in profile mode (spray voltage=4.5 kV). Mass spectra were deconvoluted using MagTran software version 1.03b2.

[7] = system: IKZF1; assay: Inhibition of IKZF1 degradation by lenalidomide, Western blot in MOLT4 cells; conditions: 1 μM compound 2 hr pre-treatment, then 1 μM lenalidomide 5 hours
[8] = in vitro; conditions: human, plasma
[9] = Human liver microsome (HLM) stability; format: in vitro ADME; conditions: human liver microsomes
Protocol: (§1) The stability of compounds was assessed in human plasma, human liver microsomes (HLM) and human hepatocytes (Hhep) using procedures previously published (Kong el al., ACS Med Chem Lett 12:1861-1865 (2021)). […] HLM stability T1/2 compound 1: >145 min. Hhep stability Tin compound 1: >217 min.

[10] = Human hepatocyte (Hhep) stability; format: in vitro ADME; conditions: human hepatocytes
Protocol: as §1

[11] = Kinetic solubility; format: physicochemical; conditions: kinetic from dmso stock
[12] = Caco-2 permeability; format: in vitro ADME; conditions: human
[13] = HEK293T cells stably expressing NanoLuc-CRBN, 250 nM BODIPY-lenalidomide tracer, 2 h incubation, read-out: CRBN NanoBRET IC50

SMILES: Nc1cc(OS(=O)(=O)F)cc2c1CN(C1CCC(=O)NC1=O)C2=O (stereo not drawn) [Compound 10, 4-amino-2-(2,6-dioxo-3-piperidyl)-6-fluorosulfonyloxy-1-oxo-isoindoline]
- pIC50 [1]: 6.05

SMILES: O=C1CCC(N2Cc3cc(S(=O)(=O)F)ccc3C2=O)C(=O)N1 (stereo not drawn) [Compound 4, 2-(2,6-dioxopiperidin-3-yl)-1-oxoisoindoline-5-sulfonyl fluoride]
- site of covalent labeling of CRBN [2]: label His353
- relative fold-change abundance of RNF166 [3]: clearly downregulated
- relative fold-change abundance of GSPT1 [4]: clearly downregulated
- relative fold-change abundance of PFKFB4 [5]: clearly downregulated
- adduct formation with CRBN (intact MS) [6]: form an adduct with CRBN

SMILES: Cc1cnn(S(=O)(=O)c2ccc3c(c2)C(=O)N(C2CCC(=O)NC2=O)C3)c1 (stereo not drawn) [Compound 11, 3-(6-((4-methyl-1H-pyrazol-1-yl)sulfonyl)-1-oxoisoindolin-2-yl)piperidine-2,6-dione]
- Human plasma stability T1/2: > 4.82 h

SMILES: C=CS(=O)(=O)c1ccc2c(c1)C(=O)N(C1CCC(=O)NC1=O)C2 (stereo not drawn) [Compound 5, 3-(1-oxo-6-(vinylsulfonyl)isoindolin-2-yl)piperidine-2,6-dione]
- pIC50 [1, 13]: 4.90

SMILES: O=C1CCC(N2Cc3ccc(S(=O)(=O)F)cc3C2=O)C(=O)N1 (stereo not drawn) [Compound 3, 2-(2,6-dioxopiperidin-3-yl)-3-oxoisoindoline-5-sulfonyl fluoride]
- inhibition of IKZF1 degradation by lenalidomide [7]: clearly inhibits the degradation of IKZF1 by lenalidomide
- mass shift of CRBN (Δmass) ([6]; 1 eq. compound, 4 hr): 307
- adduct formation with CRBN (intact MS) [6]: form an adduct with CRBN

SMILES: O=C1CCC(N2Cc3ccc(S(=O)(=O)n4cc(F)cn4)cc3C2=O)C(=O)N1 (stereo not drawn) [Compound 12, 3-(6-((4-fluoro-1H-pyrazol-1-yl)sulfonyl)-1-oxoisoindolin-2-yl)piperidine-2,6-dione]
- Human plasma stability T1/2: 1.53 h

SMILES: C=CS(=O)(=O)Nc1ccc2c(c1)C(=O)N(C1CCC(=O)NC1=O)C2 (stereo not drawn) [Compound 6, N-(2-(2,6-dioxopiperidin-3-yl)-3-oxoisoindolin-5-yl)ethenesulfonamide]
- pIC50 [1, 13]: 6.27

SMILES: O=C1CCC(N2Cc3cc(OS(=O)(=O)F)ccc3C2=O)C(=O)N1 (stereo not drawn) [Compound 2, 2-(2,6-dioxopiperidin-3-yl)-1-oxoisoindolin-5-yl sulfurofluoridate]
- adduct formation with CRBN (intact MS) [6]: form an adduct with CRBN

SMILES: O=C1CCC(N2Cc3ccc(OS(=O)(=O)F)cc3C2=O)C(=O)N1 (stereo not drawn) [Compound 1, 2-(2,6-dioxopiperidin-3-yl)-3-oxoisoindolin-5-yl sulfurofluoridate]
- HLM stability T1/2 [9]: > 2.42 h
- Hhep stability Tin [10]: > 217 min
- solubility kinetic [11]: 119 µM (≈ 40.7 µg/mL)
- Papp [12]: 29.5 ×10⁻⁶ cm/s

Continued, values first:

- Human plasma stability T1/2: 2.72 h
SMILES: O=C1CCC(N2Cc3ccc(S(=O)(=O)n4ccc(=O)[nH]c4=O)cc3C2=O)C(=O)N1 (stereo not drawn) [Compound 21, 1-((2-(2,6-dioxopiperidin-3-yl)-3-oxoisoindolin-5-yl)sulfonyl)pyrimidine-2,4(1H,3H)-dione]

- Human plasma stability T1/2: 0.167 h
SMILES: O=C1CCC(N2Cc3ccc(S(=O)(=O)n4cc(C(F)(F)F)cn4)cc3C2=O)C(=O)N1 (stereo not drawn) [Compound 13, 3-(1-oxo-6-((4-(trifluoromethyl)-1H-pyrazol-1-yl)sulfonyl)isoindolin-2-yl)piperidine-2,6-dione]

- Human plasma stability T1/2: 0.317 h
SMILES: O=C1CCC(N2Cc3ccc(S(=O)(=O)n4cnc(F)c4)cc3C2=O)C(=O)N1 (stereo not drawn) [Compound 17, 3-(6-((4-fluoro-1H-imidazol-1-yl)sulfonyl)-1-oxoisoindolin-2-yl)piperidine-2,6-dione]

- Human plasma stability T1/2: 3.98 h
SMILES: Cc1cn(S(=O)(=O)c2ccc3c(c2)C(=O)N(C2CCC(=O)NC2=O)C3)c(=O)[nH]c1=O (stereo not drawn) [Compound 19, 1-((2-(2,6-dioxopiperidin-3-yl)-3-oxoisoindolin-5-yl)sulfonyl)-5-methylpyrimidine-2,4(1H,3H)-dione]

- Human plasma stability T1/2: 0.233 h
SMILES: O=C1CCC(N2Cc3ccc(S(=O)(=O)n4ccc(C(F)(F)F)n4)cc3C2=O)C(=O)N1 (stereo not drawn) [Compound 18, 3-(1-oxo-6-((3-(trifluoromethyl)-1H-pyrazol-1-yl)sulfonyl)isoindolin-2-yl)piperidine-2,6-dione]

- Human plasma stability T1/2: 1.92 h
SMILES: O=C1CCC(N2Cc3ccc(S(=O)(=O)n4ccc(F)n4)cc3C2=O)C(=O)N1 (stereo not drawn) [Compound 15, 3-(6-((3-fluoro-1H-pyrazol-1-yl)sulfonyl)-1-oxoisoindolin-2-yl)piperidine-2,6-dione]

- pIC50 [1, 13]: 5.06
- half-life [8]: > 4.82 h
SMILES: Nc1cn(S(=O)(=O)c2ccc3c(c2)C(=O)N(C2CCC(=O)NC2=O)C3)c(=O)[nH]c1=O (stereo not drawn) [Compound 20, 5-amino-1-((2-(2,6-dioxopiperidin-3-yl)-3-oxoisoindolin-5-yl)sulfonyl)pyrimidine-2,4(1H,3H)-dione]

- Human plasma stability T1/2: 0.108 h
SMILES: O=C1CCC(N2Cc3ccc(S(=O)(=O)n4cnc(C(F)(F)F)c4)cc3C2=O)C(=O)N1 (stereo not drawn) [Compound 14, 3-(1-oxo-6-((4-(trifluoromethyl)-1H-imidazol-1-yl)sulfonyl)isoindolin-2-yl)piperidine-2,6-dione]
